US20250304535A1, “KAT6 Inhibitors” (BeiGene Switzerland GmbH, priority 2024, published 2025)

Key:
[1] = tested on: histone H3K23 acetylation in U-2 OS cells; test: Histone H3 lysine 23 acetylation assay in U-2 OS cells (high content analysis); format: cell-based; conditions: 24 hrs exposure, H3K23ac level
Protocol: Assay B: Histone H3 lysine 23 Acetylation Assay
Compounds were tested for their capacity to suppress the histone H3K23 acetylation in the following high content analysis assay.
The cell line U-2 OS (ATCC HTB-96) was seeded at a density of 2000 cells per well in black 384 well cell culture/imaging microplates in 45 μl McCoy's 5A medium with […]. After overnight incubation in 37° C., 5% CO2 incubator, cells were then treated with a 9-point dilution series of compounds and a blank control group with medium containing 0.1% DMSO.
Following a 24 hrs exposure to the compounds, the cells were fixed with 4% immunohistochemical fixative for 20 mins at room temperature, washed with DPBS with 2% fetal bovine serum, and permed with Perm Buffer III for 30 min on ice, washed with DPBS with 2% fetal bovine serum. Then the cells were blocked with Odyssey blocking buffer containing 0.1% Tween 20. 20 ul Anti-Histone H3 (acetyl K23) antibody (Abcam, ab177275) in odyssey blocking buffer containing 0.1% Tween20 was added and incubated overnight at 4° C. After incubation, the cells were washed for 3 times and a secondary antibody Anti-rabbit IgG (H+L), F(ab′)2 Fragment (Alexa Fluor® 647 Conjugate) (CST, 4414S) were added into cells for one hour. The cells were washed and 1 ug/ml DAPI (Thermo, 62248) were added for 10 min. Then cells were washed and read on the PerkinElmer Operetta CLS high content analysis system. The nuclei were identified by DAPI and H3K23ac level was calculated from the Alexa Fluor 647 intensity in the nuclei. Inhibition rate of H3K23ac was calculated as the mean intensity of cells per well relative to blank controls on the same plate.

[2] = target: Recombinant human KAT6A protein (497-780) (Homo sapiens (Human), UniProt Q92794); test: KAT6A biochemical TR-FRET assay; conditions: histone H4 peptide 2000 nM, AcCoA 300 nM, enzyme 5 nM
Recombinant human KAT6A protein (497-780), sequence (Q92794 497-780): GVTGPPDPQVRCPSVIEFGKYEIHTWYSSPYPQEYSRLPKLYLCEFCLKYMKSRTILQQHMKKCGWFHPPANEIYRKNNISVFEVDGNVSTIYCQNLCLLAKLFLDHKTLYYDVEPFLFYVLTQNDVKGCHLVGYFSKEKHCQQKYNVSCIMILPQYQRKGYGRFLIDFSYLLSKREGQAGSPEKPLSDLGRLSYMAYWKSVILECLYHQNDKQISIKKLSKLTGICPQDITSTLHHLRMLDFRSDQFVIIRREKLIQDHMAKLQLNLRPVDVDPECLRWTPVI
Protocol: Enzymatic reactions of KAT6A and KAT6B were performed using Fluorescence Resonance Energy Transfer (TR-FRET) assay, which measures acetylation of a synthetic, biotinylated histone-H4 peptide by the KAT6A and KAT6B enzymes. Recombinant human KAT6A protein (497-780) were expressed in BL21 cell using an E. coli expression system. Recombinant human KAT6B protein (657-1069) was expressed in sf9 cell using a baculovirus expression system. […] Acetyl coenzyme A was purchased from Sigma-Aldrich (#A-2056).
Testing for the inhibition activities of various compounds disclosed herein was carried out at room temperature in assay buffer containing 100 mM Tris/HCl Ph7.8, 15 mM NaCl, 0.01% chicken egg white albumin, 1 mM DTT and 0.01% Tween-20. Compounds in DMSO were dispensed into wells of a black, 384-well plate (Corning 4514) using ECHO555 (Beckman). The final concentration ranges of the test compounds were 0.0625-1,000 nM, 0.625-10,000 nM, or 0.313-5,000 nM. Five μL of KAT6A or KAT6B enzyme solution were added to wells, and the plate was incubated for 1 hour at room temperature (rt). After incubation for 1 hour at rt, 5 μL H4 and AcCoA substrate solutions were added to the wells to initiate reaction, and the plate was incubated. After 2 hours reaction, 5 μL detection reagent were added to the wells, and the plate was incubated for 2 hours. After two hours incubation, detection reagent containing 5 nM Anti-histone H4 antibody (ABCAM #ab177790), 100 μM formic acid (sigma #06473-100ML), 0.1 test/μL streptavidin-XL665 (PerkinElmer #610SAXLG), 0.05 test/μL PAb anti-rabbit IgG-Eu (PerkinElmer μ61PARKLA) was added to the wells. TR-FRET was measured on a microplate reader (PHERAstar FSX, BMG labtech). […] In Table 6, I≤5 nM, 5 nM<II≤50 nM.

[3] = target: Recombinant human KAT6B protein (657-1069) (Homo sapiens (Human), UniProt Q8WYB5); test: KAT6B biochemical TR-FRET assay; conditions: histone H4 peptide 1000 nM, AcCoA 100 nM, enzyme 5 nM
Recombinant human KAT6B protein (657-1069), sequence (Q8WYB5 657-1069): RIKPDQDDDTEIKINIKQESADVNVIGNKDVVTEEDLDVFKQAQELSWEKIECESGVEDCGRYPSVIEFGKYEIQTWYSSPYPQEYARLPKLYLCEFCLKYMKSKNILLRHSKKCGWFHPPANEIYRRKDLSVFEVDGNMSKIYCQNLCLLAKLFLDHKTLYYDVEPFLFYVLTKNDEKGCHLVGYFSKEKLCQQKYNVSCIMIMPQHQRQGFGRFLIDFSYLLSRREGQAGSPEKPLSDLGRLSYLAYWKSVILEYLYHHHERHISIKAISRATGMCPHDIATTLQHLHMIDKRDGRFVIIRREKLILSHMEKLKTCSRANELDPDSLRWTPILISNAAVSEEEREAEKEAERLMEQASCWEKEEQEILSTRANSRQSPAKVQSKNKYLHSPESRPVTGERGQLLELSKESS
Protocol: Enzymatic reactions of KAT6A and KAT6B were performed using Fluorescence Resonance Energy Transfer (TR-FRET) assay, which measures acetylation of a synthetic, biotinylated histone-H4 peptide by the KAT6A and KAT6B enzymes. Recombinant human KAT6A protein (497-780) were expressed in BL21 cell using an E. coli expression system. Recombinant human KAT6B protein (657-1069) was expressed in sf9 cell using a baculovirus expression system. Histone H4 peptide (SEQ ID NO: 1—[…]-GGK-Biotin), which was used as substrate, was synthesized by GL Biochem, Shanghai, China. Acetyl coenzyme A was purchased from Sigma-Aldrich (#A-2056).
Testing for the inhibition activities of various compounds disclosed herein was carried out at room temperature in assay buffer containing 100 mM Tris/HCl Ph7.8, 15 mM NaCl, 0.01% chicken egg white albumin, 1 mM DTT and 0.01% Tween-20. Compounds in DMSO were dispensed into wells of a black, 384-well plate (Corning 4514) using ECHO555 (Beckman). The final concentration ranges of the test compounds were 0.0625-1,000 nM, 0.625-10,000 nM, or 0.313-5,000 nM. Five μL of KAT6A or KAT6B enzyme solution were added to wells, and the plate was incubated for 1 hour at room temperature (rt). After incubation for 1 hour at rt, 5 μL H4 and AcCoA substrate solutions were added to the wells to initiate reaction, and the plate was incubated. After 2 hours reaction, 5 μL detection reagent were added to the wells, and the plate was incubated for 2 hours. After two hours incubation, detection reagent containing 5 nM Anti-histone H4 antibody (ABCAM #ab177790), 100 μM formic acid (sigma #06473-100ML), 0.1 test/μL streptavidin-XL665 (PerkinElmer #610SAXLG), 0.05 test/μL PAb anti-rabbit IgG-Eu (PerkinElmer μ61PARKLA) was added to the wells. TR-FRET was measured on a microplate reader (PHERAstar FSX, BMG labtech). The IC50s were calculated based on inhibition of enzyme activity in the presence of increasing concentrations of test compounds, and the results are shown in Table 6. In Table 6, I≤5 nM, 5 nM<II≤50 nM.

| SMILES | IC50 ([1]; Homo sapiens, U2OS) [nM] | IC50 [2] [nM] | IC50 [3] [nM] | IC50 [1] [nM] |
| --- | --- | --- | --- | --- |
| COc1ccc(C(C)(C)C)nc1S(=O)(=O)NC(=O)c1ccc(Cn2cccn2)c(C(F)F)c1 [Example C36, 4-((1H-pyrazol-1-yl)methyl)-N-((6-(tert-butyl)-3-methoxypyridin-2-yl)sulfonyl)-3-(difluoromethyl)benzamide] | ≤ 10 | ≤ 5 | ≤ 5 | – |
| COc1ccc(C(C)(C)C)nc1S(=O)(=O)NC(=O)c1ccc(Cn2ccc(N)n2)c(OC)n1 [Example C37, 5-((3-amino-1H-pyrazol-1-yl)methyl)-N-((6-(tert-butyl)-3-methoxypyridin-2-yl)sulfonyl)-6-methoxypicolinamide] | ≤ 10 | ≤ 5 | ≤ 5 | – |
| COc1cc(C(=O)NS(=O)(=O)c2nc(C(C)(C)C)ccc2OC)ccc1Cn1cc(N)cn1 [Example C38] | – | ≤ 5 | ≤ 5 | ≤ 10 |
| COc1ccc2c(c1S(=O)(=O)NC(=O)c1ccc(Cn3cccn3)c(OC)n1)OCCC2(C)C [Example C39, 5-((1H-pyrazol-1-yl)methyl)-6-methoxy-N-((7-methoxy-4,4-dimethylchroman-8-yl)sulfonyl)picolinamide] | ≤ 10 | ≤ 5 | ≤ 5 | – |
| COc1ccc(C(C)(C)C)cc1S(=O)(=O)NC(=O)c1ccc(Cn2cccn2)c(OC)n1 [Example C40, 5-((1H-pyrazol-1-yl)methyl)-N-((5-(tert-butyl)-2-methoxyphenyl)sulfonyl)-6-methoxypicolinamide] | ≤ 10 | ≤ 5 | ≤ 5 | – |
| COc1ccc(C(C)(C)C)nc1S(=O)(=O)NC(=O)c1ccc(Cn2cccn2)c(OC)n1 [Example C41, 5-((1H-pyrazol-1-yl)methyl)-N-((6-(tert-butyl)-3-methoxypyridin-2-yl)sulfonyl)-6-methoxypicolinamide] | ≤ 10 | ≤ 5 | ≤ 5 | – |
| COc1ccc2c(c1S(=O)(=O)NC(=O)c1ccc(Cn3cccn3)c(OC)n1)OC(C)(C)C2 [Example C42, 5-((1H-pyrazol-1-yl)methyl)-6-methoxy-N-((6-methoxy-2,2-dimethyl-2,3-dihydrobenzofuran-7-yl)sulfonyl)picolinamide] | ≤ 10 | ≤ 5 | ≤ 5 | – |
| COc1ccc2c(c1S(=O)(=O)NC(=O)c1ccc(Cn3cccn3)c(OC)n1)OCC2(C)C [Example C43, 5-((1H-pyrazol-1-yl)methyl)-6-methoxy-N-((6-methoxy-3,3-dimethyl-2,3-dihydrobenzofuran-7-yl)sulfonyl)picolinamide] | ≤ 10 | ≤ 5 | ≤ 5 | – |
| C=Cc1cc(C(=O)NS(=O)(=O)c2c(OC)ccc3c2OC(C)(C)C3)ccc1Cn1cccn1 [Example C44, 4-((1H-pyrazol-1-yl)methyl)-N-((6-methoxy-2,2-dimethyl-2,3-dihydrobenzofuran-7-yl)sulfonyl)-3-vinylbenzamide] | ≤ 10 | ≤ 5 | ≤ 5 | – |
| COc1cc(C(=O)NS(=O)(=O)c2c(OC)ccc3c2OC(C)(C)C3)ccc1Cn1cccn1 [Example C45, 4-((1H-pyrazol-1-yl)methyl)-3-methoxy-N-((6-methoxy-2,2-dimethyl-2,3-dihydrobenzofuran-7-yl)sulfonyl)benzamide] | ≤ 10 | ≤ 5 | ≤ 5 | – |
| COc1ccc2c(c1S(=O)(=O)NC(=O)c1ccc(Cn3cccn3)c(C3CC3)n1)OC(C)(C)C2 [Example C46, 5-((1H-pyrazol-1-yl)methyl)-6-cyclopropyl-N-((6-methoxy-2,2-dimethyl-2,3-dihydrobenzofuran-7-yl)sulfonyl)picolinamide] | ≤ 10 | ≤ 5 | ≤ 5 | – |
| COc1ccc2c(c1S(=O)(=O)NC(=O)c1ccc(Cn3cccn3)c(C3CC3)n1)OCC2(C)C [Example C47, 5-((1H-pyrazol-1-yl)methyl)-6-cyclopropyl-N-((6-methoxy-3,3-dimethyl-2,3-dihydrobenzofuran-7-yl)sulfonyl)picolinamide] | ≤ 10 | ≤ 5 | ≤ 5 | – |
| COc1ccc(C(C)(C)C)nc1S(=O)(=O)NC(=O)c1ccc(Cn2cccn2)c(C2CC2)n1 [Example C48, 5-((1H-pyrazol-1-yl)methyl)-N-((6-(tert-butyl)-3-methoxypyridin-2-yl)sulfonyl)-6-cyclopropylpicolinamide] | ≤ 10 | ≤ 5 | ≤ 5 | – |
| COc1cc(C(=O)NS(=O)(=O)c2c(OC)ccc3c2OCC3(C)C)ccc1Cn1cccn1 [Example C49, 4-((1H-pyrazol-1-yl)methyl)-3-methoxy-N-((6-methoxy-3,3-dimethyl-2,3-dihydrobenzofuran-7-yl)sulfonyl)benzamide] | ≤ 10 | ≤ 5 | ≤ 5 | – |
| C=Cc1cc(C(=O)NS(=O)(=O)c2c(OC)ccc3c2OCC3(C)C)ccc1Cn1cccn1 [Example C50, 4-((1H-pyrazol-1-yl)methyl)-N-((6-methoxy-3,3-dimethyl-2,3-dihydrobenzofuran-7-yl)sulfonyl)-3-vinylbenzamide] | ≤ 10 | ≤ 5 | ≤ 5 | – |
| CCc1cc(C(=O)NS(=O)(=O)c2c(OC)ccc3c2OCC3(C)C)ccc1Cn1cccn1 [Example C51, 4-((1H-pyrazol-1-yl)methyl)-3-ethyl-N-((6-methoxy-3,3-dimethyl-2,3-dihydrobenzofuran-7-yl)sulfonyl)benzamide] | ≤ 10 | ≤ 5 | ≤ 5 | – |
| CCc1cc(C(=O)NS(=O)(=O)c2c(OC)ccc3c2OC(C)(C)C3)ccc1Cn1cccn1 [Example C52, 4-((1H-pyrazol-1-yl)methyl)-3-ethyl-N-((6-methoxy-2,2-dimethyl-2,3-dihydrobenzofuran-7-yl)sulfonyl)benzamide] | ≤ 10 | ≤ 5 | ≤ 5 | – |
